This is an account of results in paper PMC2584039 (Molecular Pain, 2008).

The subject of assay [1] is spinal nerve ligation induced mechanical hypersensitivity. The following applies: rat, in vivo.
The test system of a further assay is TRPA1. On the set-up: method as in Petrus et al. (2007). The following applies: mouse; ref Petrus et al. (2007); cited from earlier work.
The next assay has as its target T1, human TRPA1 (Homo sapiens, UniProt O75762).
T1 construct: Full length human TRPA1 cDNA was purchased from Origene Technologies; host or cells: HEK-293 (Invitrogen Flp-In system, hygromycin B selection)
Briefly: cell-based.

T1 sequence (O75762 whole entry): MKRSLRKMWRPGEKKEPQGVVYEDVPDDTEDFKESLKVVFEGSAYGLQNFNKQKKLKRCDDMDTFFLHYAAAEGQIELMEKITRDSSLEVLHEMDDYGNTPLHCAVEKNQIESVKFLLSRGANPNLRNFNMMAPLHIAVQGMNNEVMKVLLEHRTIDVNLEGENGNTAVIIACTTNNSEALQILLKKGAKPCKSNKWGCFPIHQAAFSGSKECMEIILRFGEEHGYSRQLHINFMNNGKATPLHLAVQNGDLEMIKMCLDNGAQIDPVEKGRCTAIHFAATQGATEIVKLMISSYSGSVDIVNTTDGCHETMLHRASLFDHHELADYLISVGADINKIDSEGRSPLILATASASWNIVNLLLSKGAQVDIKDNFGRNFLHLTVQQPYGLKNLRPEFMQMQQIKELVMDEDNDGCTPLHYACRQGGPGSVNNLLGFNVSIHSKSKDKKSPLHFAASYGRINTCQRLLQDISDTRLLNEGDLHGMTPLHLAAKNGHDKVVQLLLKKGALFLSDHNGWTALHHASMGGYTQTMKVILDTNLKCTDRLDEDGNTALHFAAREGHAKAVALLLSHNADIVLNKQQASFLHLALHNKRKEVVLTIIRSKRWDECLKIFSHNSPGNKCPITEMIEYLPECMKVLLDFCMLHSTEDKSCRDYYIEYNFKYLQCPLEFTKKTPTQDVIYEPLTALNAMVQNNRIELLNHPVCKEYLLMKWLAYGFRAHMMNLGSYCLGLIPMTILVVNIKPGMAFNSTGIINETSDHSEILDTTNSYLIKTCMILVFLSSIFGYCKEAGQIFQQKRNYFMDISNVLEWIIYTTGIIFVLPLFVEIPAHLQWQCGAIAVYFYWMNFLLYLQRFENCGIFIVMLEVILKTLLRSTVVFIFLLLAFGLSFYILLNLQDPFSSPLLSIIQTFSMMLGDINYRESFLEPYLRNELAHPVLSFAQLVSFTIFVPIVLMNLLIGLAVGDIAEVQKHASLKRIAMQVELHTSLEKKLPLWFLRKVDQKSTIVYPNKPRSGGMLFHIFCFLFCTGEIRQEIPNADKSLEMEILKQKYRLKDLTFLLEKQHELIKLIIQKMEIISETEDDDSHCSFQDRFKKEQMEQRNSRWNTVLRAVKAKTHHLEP

For the molecule `CC(C)C[C@H](CN)CC(=O)O` [pregabalin], in assay [1], the “effect on SNL mechanical hypersensitivity vs vehicle” value is given as “significant attenuation” and the “percent reversal of SNL-induced mechanical hypersensitivity” value came out at 56%.
For the molecule `CC(=C\c1ccc(Cl)cc1)/C(C)=N/O` [AP18], the IC50 (as a rule, the point on the concentration scale where inhibition reaches its midpoint) in the assay with TRPA1 is 4.5 µM.
In the case of `O=C/C=C/c1ccccc1` [cinnamaldehyde], the EC50 (usually the concentration at which the effect is half-maximal) on human TRPA1 was 15.9 µM.
